This passage reports growth results from ChEMBL document CHEMBL3774317, “Design and synthesis of novel tamoxifen analogues that avoid CYP2D6 metabolism” (Eur J Med Chem, 2016).

Holding throughout (type): functional
One test deals with CCRF-CEM. The experiment in a line: Cytotoxicity against human CCRF-CEM cells assessed as cell growth at 10^-8 M after 48 hrs by SRB assay. The conditions noted are these: read-out: Activity. A general note: The SRB assay estimates cell density from bound dye.
Test [1] has as its system SK-MEL-28. The experiment in a line: Cytotoxicity against human SK-MEL-28 cells assessed as cell growth at 10^-6 M after 48 hrs by SRB assay. The conditions noted are these: SK-MEL-28, 48 h, read-out: Activity.
Test [2] has as its system SK-MEL-28. The experiment in a line: Cytotoxicity against human SK-MEL-28 cells assessed as cell growth at 10^-7 M after 48 hrs by SRB assay. The conditions noted are these: SK-MEL-28, 48 h, read-out: Activity.
Test [3] is described as follows: Cytotoxicity against human COLO205 cells assessed as cell growth at 10^-8 M after 48 hrs by SRB assay. The conditions noted are these: COLO 205, 48 h, read-out: Activity.
Test [4] in a line: Cytotoxicity against human UACC62 cells assessed as cell growth at 10^-8 M after 48 hrs by SRB assay. The conditions noted are these: UACC-62, 48 h, read-out: Activity.
A further test relates to NCI-H460. The test can be described thus: Cytotoxicity against human NCI-H460 cells assessed as cell growth at 10^-5 M after 48 hrs by SRB assay. The conditions noted are these: NCI-H460, 48 h, read-out: Activity.
Test [5] is described as follows: Cytotoxicity against human SF295 cells assessed as cell growth at 10^-4 M after 48 hrs by SRB assay. The conditions noted are these: SF-295, 48 h, read-out: Activity.
The test system of a further test is NCI-H23. The experiment in a line: Cytotoxicity against human NCI-H23 cells assessed as cell growth at 10^-6 M after 48 hrs by SRB assay. The conditions noted are these: NCI-H23, 48 h, read-out: Activity.
Test [6] in a line: Cytotoxicity against human HCT116 cells assessed as cell growth at 10^-8 M after 48 hrs by SRB assay. The conditions noted are these: HCT-116, 48 h, read-out: Activity.
Another test deals with KM12. The test can be described thus: Cytotoxicity against human KM12 cells assessed as cell growth at 10^-6 M after 48 hrs by SRB assay. The conditions noted are these: KM12, 48 h, read-out: Activity.
Test [7] deals with MDA-MB-231. The test can be described thus: Cytotoxicity against human MDA-MB-231 cells assessed as cell growth at 10^-8 M after 48 hrs by SRB assay. The conditions noted are these: MDA-MB-231, 48 h, read-out: Activity.
The test system of test [8] is 786-0. The test can be described thus: Cytotoxicity against human 786-0 cells assessed as cell growth at 10^-6 M after 48 hrs by SRB assay. The conditions noted are these: 786-0, 48 h, read-out: Activity.
Another test has as its system NCI-H322M. The test can be described thus: Cytotoxicity against human NCI-H322M cells assessed as cell growth at 10^-6 M after 48 hrs by SRB assay. The conditions noted are these: read-out: Activity.
A further test deals with A549. The test can be described thus: Cytotoxicity against human A549 cells assessed as cell growth at 10^-4 M after 48 hrs by SRB assay. The conditions noted are these: A549, 48 h, read-out: Activity.
Test [9] can be described thus: Cytotoxicity against human BT549 cells assessed as cell growth at 10^-6 M after 48 hrs by SRB assay. The conditions noted are these: BT-549, 48 h, read-out: Activity.
The nature of test [10]: Cytotoxicity against human DU145 cells assessed as cell growth at 10^-8 M after 48 hrs by SRB assay. The conditions noted are these: DU-145, 48 h, read-out: Activity.
Test [11] can be described thus: Cytotoxicity against human OVCAR3 cells assessed as cell growth at 10^-5 M after 48 hrs by SRB assay. The conditions noted are these: OVCAR-3, 48 h, read-out: Activity.
Test [12] can be described thus: Cytotoxicity against human OVCAR5 cells assessed as cell growth at 5 uM after 48 hrs by SRB assay. The conditions noted are these: OVCAR-5, 48 h, read-out: Activity.
A short description of test [13]: Cytotoxicity against human UO31 cells assessed as cell growth at 0.5 uM after 48 hrs by SRB assay. The conditions noted are these: UO-31, 48 h, read-out: Activity.
A short description of test [14]: Cytotoxicity against human BT549 cells assessed as cell growth at 5 uM after 48 hrs by SRB assay. The conditions noted are these: BT-549, 48 h, read-out: Activity.
Test [15] is described as follows: Cytotoxicity against human HCC2998 cells assessed as cell growth at 5 nM after 48 hrs by SRB assay. The conditions noted are these: HCC 2998, 48 h, read-out: Activity.
A short description of test [16]: Cytotoxicity against human TK10 cells assessed as cell growth at 5 nM after 48 hrs by SRB assay. The conditions noted are these: TK-10, 48 h, read-out: Activity.
Test [17] is described as follows: Cytotoxicity against human OVCAR3 cells assessed as cell growth at 50 uM after 48 hrs by SRB assay. The conditions noted are these: OVCAR-3, 48 h, read-out: Activity.
Test [18] is described as follows: Cytotoxicity against human RPMI8226 cells assessed as cell growth at 0.5 uM after 48 hrs by SRB assay. The conditions noted are these: RPMI-8226, 48 h, read-out: Activity.
Test [19] concerns ACHN. The test can be described thus: Cytotoxicity against human ACHN cells assessed as cell growth at 5 nM after 48 hrs by SRB assay. The conditions noted are these: read-out: Activity.
The nature of test [20]: Cytotoxicity against human OVCAR5 cells assessed as cell growth at 50 uM after 48 hrs by SRB assay. The conditions noted are these: OVCAR-5, 48 h, read-out: Activity.
Test [21] in a line: Cytotoxicity against human SKOV3 cells assessed as cell growth at 5 nM after 48 hrs by SRB assay. The conditions noted are these: SK-OV-3, 48 h, read-out: Activity.
Test [22] can be described thus: Cytotoxicity against human HL-60(TB) cells assessed as cell growth at 50 nM after 48 hrs by SRB assay. The conditions noted are these: HL-60, 48 h, read-out: Activity.
Test [23] concerns MDA-MB-231. The test can be described thus: Cytotoxicity against human MDA-MB-231 cells assessed as cell growth at 50 uM after 48 hrs by SRB assay. The conditions noted are these: MDA-MB-231, 48 h, read-out: Activity.
The nature of test [24]: Cytotoxicity against human HOP62 cells assessed as cell growth at 5 nM after 48 hrs by SRB assay. The conditions noted are these: HOP-62, 48 h, read-out: Activity.
The subject of a further test is SK-MEL-5. The experiment in a line: Cytotoxicity against human SK-MEL-5 cells assessed as cell growth at 50 nM after 48 hrs by SRB assay. The conditions noted are these: SK-MEL-5, 48 h, read-out: Activity.
For a further test, the system named is NCI-H226. The experiment in a line: Cytotoxicity against human NCI-H226 cells assessed as cell growth at 5 uM after 48 hrs by SRB assay. The conditions noted are these: NCI-H226, 48 h, read-out: Activity.
Test [25] in a line: Cytotoxicity against human RXF393 cells assessed as cell growth at 50 nM after 48 hrs by SRB assay. The conditions noted are these: RXF 393, 48 h, read-out: Activity.
Test [26] can be described thus: Cytotoxicity against human NCI-ADR-RES cells assessed as cell growth at 5 nM after 48 hrs by SRB assay. The conditions noted are these: read-out: Activity.
Test [27] is described as follows: Cytotoxicity against human PC3 cells assessed as cell growth at 50 nM after 48 hrs by SRB assay. The conditions noted are these: PC-3, 48 h, read-out: Activity.
A short description of test [28]: Cytotoxicity against human SF268 cells assessed as cell growth at 50 uM after 48 hrs by SRB assay. The conditions noted are these: SF-268, 48 h, read-out: Activity.
Test [29] can be described thus: Cytotoxicity against human HOP62 cells assessed as cell growth at 50 uM after 48 hrs by SRB assay. The conditions noted are these: HOP-62, 48 h, read-out: Activity.
Test [30] deals with 786-0. The experiment in a line: Cytotoxicity against human 786-0 cells assessed as cell growth at 50 nM after 48 hrs by SRB assay. The conditions noted are these: 786-0, 48 h, read-out: Activity.
A short description of test [31]: Cytotoxicity against human LOXIMVI cells assessed as cell growth at 50 nM after 48 hrs by SRB assay. The conditions noted are these: LOX IMVI, read-out: Activity.
The nature of test [32]: Cytotoxicity against human HCT15 cells assessed as cell growth at 5 nM after 48 hrs by SRB assay. The conditions noted are these: HCT-15, 48 h, read-out: Activity.
Test [33] has as its system ACHN. The experiment in a line: Cytotoxicity against human ACHN cells assessed as cell growth at 50 nM after 48 hrs by SRB assay. The conditions noted are these: read-out: Activity.

In the case of `C/C(=C(/c1ccc(O)cc1)c1ccc(OCCN2CCCC2)cc1)c1ccccc1`, the growth at 0.01 µM worked out at 110% with CCRF-CEM; 93% in [3]; 99% in [4]; 97% in [6]; 110% in the test on MDA-MB-231 [7]; 98% in [10]. Further, the growth at 1 µM with SK-MEL-28 [1] came out at 85%; with NCI-H23, 86%; in the test on KM12 it was 95%; in the test with 786-0 [8], 89%; in the test on NCI-H322M, 90%; in test [9], 92%. Besides, the growth at 0.1 µM with SK-MEL-28 [2] stood at 97%. For the same compound, the growth at 10 µM in the test with NCI-H460 was -38%; in [11], 35%. Moreover, the results for the growth at 100 µM (in test [5]; in the test on A549) were -95% and -96%, respectively.

On to `CCCCCCCCCC(=O)Oc1ccc(/C(=C(/C)c2ccccc2)c2ccc(OCCN3CCCC3)cc2)cc1`, for which the values for the growth at 5 µM (in test [12]; in [14]; in the test on NCI-H226) were 91%, 85% and 97%, respectively. Also, the growth at 0.5 µM in [13] and in test [18] was 61% each time. The growth at 0.005 µM turned out to be 98% in [15]; 96% in [16]; 101% with ACHN [19]; 101% in test [21]; 103% in test [24]; 101% in [26]. The growth at 0.005 µM in test [32] is 98%. In addition, the growth at 50 µM is -84% in test [17]; -84% in [20]; -67% in the test on MDA-MB-231 [23]; -72% in test [28]; -78% in [29]. The growth at 0.05 µM in test [22] came out at 98%; in the test on SK-MEL-5 it was 102%; in test [25], 100%; in test [27], 97%; in the test with 786-0 [30], 94%; in [31], 97%. The growth at 0.05 µM in the test with ACHN [33] came to 96%.
